Measured values published in the OligoGym collection.
Values joined by “and” are separate entries in the source; they are usually repeats but may differ in a detail not shown here. Equal entries are not always repeated. After the bases stand the sugars from the 5' end (letter, count) and the backbone: PS all phosphorothioate, else s phosphorothioate and o phosphodiester by linkage. Methylation of C is not given here. e = 2'-O-(2-methoxyethyl) (MOE); k = constrained ethyl (cEt); d = 2'-deoxy (DNA)

What follows are sequences tested against IRF4. Conditions: ASO, H929, 0.04 µM.

For “AGTTGTAAATGAGTCG (sugars kkddddddddddkeke, PS)”, the target mRNA inhibition was 53% and 73%.

Same assay, conditions: ASO, KMS11, 0.2 µM

“AGTTGTAAATGAGTCG (sugars kkddddddddddkeke, PS)” was tested, and the target mRNA inhibition was 83% and 91%.

Same assay, conditions: ASO, MM.1R, 0.0625 µM

AGTGTTCCAGGAGATA (sugars k3 d10 k3, PS) showed a target mRNA inhibition of 43%.

Same assay, conditions: ASO, MM.1R, 0.074 µM

Compared with “AGTTGTAAATGAGTCG (sugars k3 d9 k3 e1, PS)”, “AGTTGTAAATGAGTCG (sugars kkddddddddddkeke, PS)” is higher in target mRNA inhibition: 27% for the first, 28% for the second.

Sequence “AGTTGTAAATGAGTCG (sugars kkdddddddddkekek, PS)” has a target mRNA inhibition of 10%.

Same assay, conditions: ASO, MM.1R, 0.222 µM

First: AGTTGTAAATGAGTCG (sugars k3 d9 k3 e1, PS)
Second: AGTTGTAAATGAGTCG (sugars kkddddddddddkeke, PS)
The target mRNA inhibition of the first is higher: 61% for the first, 44% for the second.

“AGTTGTAAATGAGTCG (sugars kkdddddddddkekek, PS)” gave a target mRNA inhibition of 31%.

Same assay, conditions: ASO, MM.1R, 0.25 µM

With AGTGTTCCAGGAGATA (sugars k3 d10 k3, PS) the target mRNA inhibition was 59%.

Same assay, conditions: ASO, MM.1R, 0.666 µM

First: AGTTGTAAATGAGTCG (sugars k3 d9 k3 e1, PS)
Second: AGTTGTAAATGAGTCG (sugars kkddddddddddkeke, PS)
The target mRNA inhibition of the first is higher: 80% for the first, 65% for the second.

Work on “AGTTGTAAATGAGTCG (sugars kkdddddddddkekek, PS)” yielded a target mRNA inhibition of 47%.

Same assay, conditions: ASO, MM.1R, 1 µM

In the case of AGTGTTCCAGGAGATA (sugars k3 d10 k3, PS), the target mRNA inhibition is reported as 80% and 72%.
In the case of “AGTTCATGTAAAGTCT (sugars k2 d9 e3 k2, PS)”, the target mRNA inhibition is reported as 41% and 30%.
With “AGTTCATGTAAAGTCT (sugars kddddddddddkekek, PS)” the target mRNA inhibition was 25% and 22%.
“AGTTCATGTAAAGTCT (sugars kkdddddddddkdkdk, PS)” was tested, and the target mRNA inhibition was 32% and 47%.
With “AGTTCATGTAAAGTCT (sugars kkdddddddddkekek, PS)” the target mRNA inhibition was 42% and 31%.
ATGGTATTTTTCCGTT (sugars k3 d10 k3, PS) was tested, and the target mRNA inhibition was 32% and 43%.
With “ATGTGTATTACTCTTA (sugars kddddddddddkekek, PS)” the target mRNA inhibition was 17% and 4%.
ATGTTAGCCAATTCCT (sugars k3 d10 k3, PS) was tested, and the target mRNA inhibition was 30% and 33%.
In the case of “CAAGCAGTGATGTCAG (sugars kkddddddddddkeke, PS)”, the target mRNA inhibition is reported as 20% and 26%.
With “CAAGCAGTGATGTCAG (sugars kkdddddddddekeke, PS)” the target mRNA inhibition was 26% and 34%.
With “CAAGTGTCTAAAGTCC (sugars k2 d9 e3 k2, PS)” the target mRNA inhibition was 22% and 31%.
In the case of “CAAGTGTCTAAAGTCC (sugars kkdddddddddkekek, PS)”, the target mRNA inhibition is reported as 15% and 6%.

Going from “AGTTGTAAATGAGTCG (sugars e1 k2 d9 k2 e2, PS)” to “AGTTGTAAATGAGTCG (sugars k3 d9 k3 e1, PS)”, the target mRNA inhibition rises from 49% to 87%.

Compared with “AGTTGTAAATGAGTCG (sugars kkddddddddddkeke, PS)”, “AGTTGTAAATGAGTCG (sugars kkdddddddddkekek, PS)” is lower in target mRNA inhibition: 59% for the first, 56% for the second.

Going from ATACATTGAGGCATAC (sugars k3 d10 k3, PS) to ATAGTAAGTTCTAGTC (sugars k3 d10 k3, PS), the target mRNA inhibition rises from 2% to 11%.

Compared with ATCAGATTGAATCCAT (sugars k3 d10 k3, PS), ATCCGAAAAGACTGGA (sugars k3 d10 k3, PS) is lower in target mRNA inhibition: 23% for the first, -20% for the second.

Compared with ATCTGTATAGTTCTCA (sugars k3 d10 k3, PS), “ATGTGATAGCTGAGCT (sugars k2 d9 e3 k2, PS)” is lower in target mRNA inhibition: 55% for the first, 0% for the second.

Compared with ATGTGTTCTGGTAAAT (sugars k3 d10 k3, PS), ATGTTGCATAGGCATC (sugars k3 d10 k3, PS) is lower in target mRNA inhibition: 34% for the first, 10% for the second.

First: ATTATAGAGCATCACT (sugars k3 d10 k3, PS)
Second: ATTATATACTGGTTGG (sugars kdddddddddkekeke, PS)
The target mRNA inhibition of the first is lower: -6% for the first, 27% for the second.

Compared with “ATTATATACTGGTTGG (sugars kkdddddddddekeke, PS)”, “ATTATATACTGGTTGG (sugars kkdddddddddkdkdk, PS)” is lower in target mRNA inhibition: 43% for the first, 28% for the second.

Compared with CAAAGCGCACCGCAGG (sugars k3 d10 k3, PS), CAAGACAAGGGTTTGA (sugars k3 d10 k3, PS) is higher in target mRNA inhibition: -4% for the first, -3% for the second.

First: CAATGGAGATACTTGT (sugars k3 d10 k3, PS)
Second: CACAAAGCGGGTTCAC (sugars k3 d10 k3, PS)
The target mRNA inhibition of the first is lower: -16% for the first, -12% for the second.

Going from CACACTGCCGTGATCT (sugars k3 d10 k3, PS) to CACCTGATCTTGCTGC (sugars k3 d10 k3, PS), the target mRNA inhibition falls from 20% to 12%.

Same assay, conditions: ASO, MM.1R, 2 µM

Going from “AGTTGTAAATGAGTCG (sugars k3 d9 k3 e1, PS)” to “AGTTGTAAATGAGTCG (sugars kkddddddddddkeke, PS)”, the target mRNA inhibition falls from 95% to 81%.

“AGTTGTAAATGAGTCG (sugars kkdddddddddkekek, PS)” was tested, and the target mRNA inhibition was 66%.

Same assay, conditions: ASO, MM.1R, 4 µM

AGTGTTCCAGGAGATA (sugars k3 d10 k3, PS) gave a target mRNA inhibition of 84%.

Same assay, conditions: ASO, SK-MEL-28, 4 µM

First: AGTTAAGTACTTGGAC (sugars k3 d10 k3, PS)
Second: AGTTCATTCCCTAGGT (sugars k3 d10 k3, PS)
The target mRNA inhibition of the first is lower: 42% for the first, 44% for the second.

First: AGTTGTCTGGCTAGCA (sugars k3 d10 k3, PS)
Second: ATAAACACCTCAGCTG (sugars k3 d10 k3, PS)
The target mRNA inhibition of the first is higher: 80% for the first, 21% for the second.

Compared with ATAATGTTTCAGTGCT (sugars k3 d10 k3, PS), ATACAAAACGGACTGG (sugars k3 d10 k3, PS) is lower in target mRNA inhibition: 76% for the first, 15% for the second.

Compared with ATACATTTCTTTTACG (sugars k3 d10 k3, PS), ATACTTAAGCAAGTGG (sugars k3 d10 k3, PS) is higher in target mRNA inhibition: 22% for the first, 76% for the second.

Going from ATAGAGCCAGAGCAGT (sugars k3 d10 k3, PS) to ATAGGAAGCACTGGCA (sugars k3 d10 k3, PS), the target mRNA inhibition falls from 66% to 42%.

Compared with ATAGTGCAATGAAATG (sugars k3 d10 k3, PS), ATATAACGGTGTTTCA (sugars k3 d10 k3, PS) is higher in target mRNA inhibition: 36% for the first, 58% for the second.

Compared with ATCAAGTAAAGTGATC (sugars k3 d10 k3, PS), ATCAATGATGGCAGTC (sugars k3 d10 k3, PS) is higher in target mRNA inhibition: 29% for the first, 57% for the second.

First: ATCAGAATGGCGAGTT (sugars k3 d10 k3, PS)
Second: ATCAGTCTCAAAAACG (sugars k3 d10 k3, PS)
The target mRNA inhibition of the first is higher: 47% for the first, 41% for the second.

First: ATCCACACCAATGGCA (sugars k3 d10 k3, PS)
Second: ATCCATGTTGCATGGC (sugars k3 d10 k3, PS)
The target mRNA inhibition of the first is lower: 34% for the first, 61% for the second.

First: ATCTAATCCACAATCA (sugars k3 d10 k3, PS)
Second: ATCTGATCCGGACTCT (sugars k3 d10 k3, PS)
The target mRNA inhibition of the first is higher: 30% for the first, 9% for the second.

Going from ATCTTAACCTGGAGAA (sugars k3 d10 k3, PS) to ATGAGGAAGCCGTTCC (sugars k3 d10 k3, PS), the target mRNA inhibition rises from 28% to 58%.

First: ATGATAAGGCACTACT (sugars k3 d10 k3, PS)
Second: ATGCATAACACGGTGT (sugars k3 d10 k3, PS)
The target mRNA inhibition of the first is lower: 13% for the first, 45% for the second.

Going from ATGCATAGTGATGAGA (sugars k3 d10 k3, PS) to ATGGACATCTGCGGGT (sugars k3 d10 k3, PS), the target mRNA inhibition rises from 45% to 50%.

Going from ATGGACCACGCAGCCT (sugars k3 d10 k3, PS) to ATGGATAGTTTCTCAT (sugars k3 d10 k3, PS), the target mRNA inhibition falls from 39% to 25%.

Compared with ATGTATACATCACTGC (sugars k3 d10 k3, PS), ATTAAAGAGTGGTACA (sugars k3 d10 k3, PS) is lower in target mRNA inhibition: 67% for the first, -7% for the second.

Compared with ATTAAAGGGTAAGCAC (sugars k3 d10 k3, PS), ATTACTAGATTGTAGG (sugars k3 d10 k3, PS) is higher in target mRNA inhibition: 32% for the first, 50% for the second.

First: ATTACTGCTTGAGGTT (sugars k3 d10 k3, PS)
Second: ATTCTTAGAATGCATA (sugars k3 d10 k3, PS)
The target mRNA inhibition of the first is higher: 62% for the first, 38% for the second.

Going from ATTCTTAGAATGCATA (sugars k4 d8 k4, PS) to ATTGAGGCATACAGTG (sugars k3 d10 k3, PS), the target mRNA inhibition falls from 33% to 30%.

First: ATTTATACTGTCTGGT (sugars k3 d10 k3, PS)
Second: ATTTTAAGGCCCTGTC (sugars k3 d10 k3, PS)
The target mRNA inhibition of the first is higher: 49% for the first, 34% for the second.

First: CAAAACAGTAAGAGGG (sugars k3 d10 k3, PS)
Second: CAAAACGCAGAGCCAG (sugars k3 d10 k3, PS)
The target mRNA inhibition of the first is lower: 31% for the first, 58% for the second.

First: CAAAATGGTGTGTAAG (sugars k3 d10 k3, PS)
Second: CAAAGAGCTTGCAGGT (sugars k3 d10 k3, PS)
The target mRNA inhibition of the first is higher: 25% for the first, 4% for the second.

First: CAAAGCAAGTGTCTAA (sugars k3 d10 k3, PS)
Second: CAAAGCGGGTTCACAA (sugars k3 d10 k3, PS)
The target mRNA inhibition of the first is higher: 23% for the first, 16% for the second.

CAAATGACTTAGTCAG (sugars k3 d10 k3, PS) and CAACACGGGAATTTCC (sugars k3 d10 k3, PS) are the same in target mRNA inhibition: 55% for the first, 55% for the second.

Going from CAACAGCACTGTCCAC (sugars k3 d10 k3, PS) to CAACCATTTTCACAAG (sugars k3 d10 k3, PS), the target mRNA inhibition falls from 43% to 17%.

First: CAAGAACTGCAGCTCC (sugars k3 d10 k3, PS)
Second: CAAGACAAATCTTCTG (sugars k3 d10 k3, PS)
The target mRNA inhibition of the first is higher: 47% for the first, 13% for the second.

First: CAAGAGGTGCGAGTAC (sugars k3 d10 k3, PS)
Second: CAAGATCGAGCGGTGA (sugars k3 d10 k3, PS)
The target mRNA inhibition of the first is lower: 22% for the first, 38% for the second.

Going from CAAGGATAACCTGAAC (sugars k3 d10 k3, PS) to CAAGTGTCTTCCACAA (sugars k3 d10 k3, PS), the target mRNA inhibition rises from 26% to 65%.

Going from CAATAAAATGTCACGC (sugars k3 d10 k3, PS) to CAATACTGTAAGGGCT (sugars k3 d10 k3, PS), the target mRNA inhibition rises from 47% to 56%.

First: CAATCATGATATTAGA (sugars k3 d10 k3, PS)
Second: CAATGATGGCAGTCTA (sugars k3 d10 k3, PS)
The target mRNA inhibition of the first is lower: 38% for the first, 40% for the second.

CAATTGAAATGGAGCA (sugars k3 d10 k3, PS) and CACAAGCATAAAAGGT (sugars k3 d10 k3, PS) are the same in target mRNA inhibition: 26% for the first, 26% for the second.

First: CACAAGTGGCCTTCCT (sugars k3 d10 k3, PS)
Second: CACATCACTTGGTCAA (sugars k3 d10 k3, PS)
The target mRNA inhibition of the first is lower: 45% for the first, 72% for the second.

First: CACCACCTCGAGGCCA (sugars k3 d10 k3, PS)
Second: CACCACTATTCGAGAG (sugars k3 d10 k3, PS)
The target mRNA inhibition of the first is lower: 24% for the first, 48% for the second.

Going from CACCATGGCACAGTCT (sugars k3 d10 k3, PS) to CACCCACACAAGTCTT (sugars k3 d10 k3, PS), the target mRNA inhibition falls from 79% to 9%.

With AGTTTACACTGGATCT (sugars k3 d10 k3, PS) the target mRNA inhibition was 70% and 74%.
